This passage reports MIC and Activity results from ChEMBL document CHEMBL1240358, “Activity of a new antipseudomonal cephalosporin, CXA-101 (FR264205), against carbapenem-resistant and multidrug-resistant Pseudomonas aeruginosa clinical strains” (2010).

≈ marks a conversion by molar mass, not a printed value.

Holding throughout (type): functional
Assay [1] has as its system Pseudomonas aeruginosa. Nature of the assay: Antibacterial activity against carbapenem-resistant Pseudomonas aeruginosa isolate 3D2 GM2 harboring acquired beta-lactamase BEL-3 by broth microdilution method. (In general: Dilution methods test growth across graded concentrations, often in twofold steps.)
In assay [2] the test system is Pseudomonas aeruginosa. Nature of the assay: Antibacterial activity against carbapenem-resistant Pseudomonas aeruginosa isolate 1D5 SA1 harboring acquired beta-lactamase VIM-2 by broth microdilution method.
In assay [3] the test system is Pseudomonas aeruginosa. Put plainly: Antibacterial activity against carbapenem-resistant Pseudomonas aeruginosa isolate 1C3 PTOL1 harboring acquired beta-lactamase OXA-17 by broth microdilution method.
Assay [4] deals with Pseudomonas aeruginosa. Nature of the assay: Antibacterial activity against Pseudomonas aeruginosa PAO1 harboring acquired beta-lactamase OXA-144 by broth microdilution method.
The subject of assay [5] is Pseudomonas aeruginosa. Put plainly: Antibacterial activity against carbapenem-resistant Pseudomonas aeruginosa isolate 1C2 PTOL1 harboring beta-lactamase OXA-17 by broth microdilution method.
For assay [6], the system named is Pseudomonas aeruginosa. Put plainly: Antibacterial activity against carbapenem-resistant Pseudomonas aeruginosa isolate 3C8 GM1 harboring acquired beta-lactamase OXA-144 by broth microdilution method.
Assay [7] relates to Pseudomonas aeruginosa. Nature of the assay: Antibacterial activity against carbapenem-resistant Pseudomonas aeruginosa isolate 3C9 GM1 harboring acquired beta-lactamase OXA-144 by broth microdilution method.
Assay [8] deals with Pseudomonas aeruginosa. Nature of the assay: Antibacterial activity against carbapenem-resistant Pseudomonas aeruginosa isolate 1E1 PpA1 harboring acquired beta-lactamase OXA-144 by broth microdilution method.
Assay [9] has as its system Pseudomonas aeruginosa. Nature of the assay: Antibacterial activity against Pseudomonas aeruginosa PAO1 harboring acquired beta-lactamase OXA-2 by broth microdilution method.
Assay [10] deals with Pseudomonas aeruginosa. Nature of the assay: Antibacterial activity against Pseudomonas aeruginosa assessed as percent nonsusceptible isolates by broth microdilution assay.
Assay [11] deals with Pseudomonas aeruginosa. Put plainly: Antibacterial activity against carbapenem-resistant Pseudomonas aeruginosa isolate 1B2 RCA2 harboring acquired beta-lactamase PER-1 by broth microdilution method.
Assay [12] has as its system Pseudomonas aeruginosa. Nature of the assay: Antibacterial activity against carbapenem-resistant Pseudomonas aeruginosa isolate 1E3 PpA2 harboring acquired beta-lactamase OXA-101 by broth microdilution method.
The test system of assay [13] is Pseudomonas aeruginosa. Nature of the assay: Antibacterial activity against Pseudomonas aeruginosa PAO1 by broth microdilution method.
Assay [14] deals with Pseudomonas aeruginosa. Put plainly: Antibacterial activity against carbapenem-resistant Pseudomonas aeruginosa isolate 3C1 VAL6 by broth microdilution method.
Assay [15] concerns Pseudomonas aeruginosa. Nature of the assay: Antibacterial activity against carbapenem-resistant Pseudomonas aeruginosa isolate 1E2 PpA1 harboring acquired beta-lactamase OXA-144 by broth microdilution method.

As usually defined, the MIC is the least concentration at which growth counts as inhibited. A high value points to a need for much substance. Consider `CC(C)(O/N=C(\C(=O)N[C@@H]1C(=O)N2C(C(=O)[O-])=C(C[n+]3ccccc3)CS[C@H]12)c1csc(N)n1)C(=O)O` [CEFTAZIDIME], for which the MIC in the assay on Pseudomonas aeruginosa [1] was greater than 64 µg/mL; against Pseudomonas aeruginosa [2] it was 16 µg/mL (≈ 29.3 µM); in the assay on Pseudomonas aeruginosa [3], greater than 64 µg/mL; in the assay with Pseudomonas aeruginosa [4], greater than 64 µg/mL; in the assay with Pseudomonas aeruginosa [5], greater than 64 µg/mL; against Pseudomonas aeruginosa [6] it was 32 µg/mL (≈ 58.5 µM). The MIC was 32 µg/mL (≈ 58.5 µM) in the assay on Pseudomonas aeruginosa [7]; greater than 64 µg/mL in the assay with Pseudomonas aeruginosa [8]; 4 µg/mL (≈ 7.32 µM) against Pseudomonas aeruginosa [9]; greater than 64 µg/mL against Pseudomonas aeruginosa [11]; 64 µg/mL (≈ 117 µM) against Pseudomonas aeruginosa [12]; 1 µg/mL (≈ 1.83 µM) against Pseudomonas aeruginosa [13]. Further, the MIC against Pseudomonas aeruginosa [14] and in the assay with Pseudomonas aeruginosa [15] was greater than 64 µg/mL throughout. For the same compound, the Activity in the assay with Pseudomonas aeruginosa [10] worked out at 46.2%.
On to `NCC[C@H](O)C(=O)N[C@@H]1C[C@H](N)[C@@H](O[C@H]2O[C@H](CN)[C@@H](O)[C@H](O)[C@H]2O)[C@H](O)[C@H]1O[C@H]1O[C@H](CO)[C@@H](O)[C@H](N)[C@H]1O` [AMIKACIN], for which the MIC against Pseudomonas aeruginosa [1] stood at 8 µg/mL (≈ 13.7 µM); against Pseudomonas aeruginosa [2], 16 µg/mL (≈ 27.3 µM); with Pseudomonas aeruginosa [3], 32 µg/mL (≈ 54.6 µM); in the assay on Pseudomonas aeruginosa [5], 32 µg/mL (≈ 54.6 µM); with Pseudomonas aeruginosa [6], 4 µg/mL (≈ 6.83 µM); in the assay on Pseudomonas aeruginosa [7] it was 4 µg/mL (≈ 6.83 µM). Moreover, the MIC against Pseudomonas aeruginosa [8] was 16 µg/mL (≈ 27.3 µM); against Pseudomonas aeruginosa [11] it was 1 µg/mL (≈ 1.71 µM); in the assay on Pseudomonas aeruginosa [12], 32 µg/mL (≈ 54.6 µM); in the assay with Pseudomonas aeruginosa [14], 2 µg/mL (≈ 3.42 µM); against Pseudomonas aeruginosa [15], 32 µg/mL (≈ 54.6 µM). In the assay with Pseudomonas aeruginosa [10], the Activity was found to be 18.6%.
As to `CCN1CCN(C(=O)N[C@@H](C(=O)N[C@@H]2C(=O)N3[C@@H]2SC(C)(C)[C@@H]3C(=O)O)c2ccccc2)C(=O)C1=O` [PIPERACILLIN], the MIC in the assay with Pseudomonas aeruginosa [4] stood at 16 µg/mL (≈ 30.9 µM); with Pseudomonas aeruginosa [9], 32 µg/mL (≈ 61.8 µM); against Pseudomonas aeruginosa [13], 4 µg/mL (≈ 7.73 µM). In addition, in the assay with Pseudomonas aeruginosa [10], the Activity is reported as 28.4%.
In the case of GENTAMICIN, the Activity with Pseudomonas aeruginosa [10] is 58.9%.
On to `CO/N=C(\C(=O)N[C@@H]1C(=O)N2C(C(=O)[O-])=C(C[N+]3(C)CCCC3)CS[C@H]12)c1csc(N)n1`, for which the MIC against Pseudomonas aeruginosa [1] was 32 µg/mL (≈ 66.6 µM); in the assay with Pseudomonas aeruginosa [2], 16 µg/mL (≈ 33.3 µM); with Pseudomonas aeruginosa [3] it was greater than 64 µg/mL; against Pseudomonas aeruginosa [4], 8 µg/mL (≈ 16.6 µM); against Pseudomonas aeruginosa [5] it was greater than 64 µg/mL; in the assay on Pseudomonas aeruginosa [6] it was 4 µg/mL (≈ 8.32 µM). Moreover, the MIC was 4 µg/mL (≈ 8.32 µM) against Pseudomonas aeruginosa [7]; 16 µg/mL (≈ 33.3 µM) against Pseudomonas aeruginosa [8]; 2 µg/mL (≈ 4.16 µM) with Pseudomonas aeruginosa [9]; greater than 64 µg/mL in the assay on Pseudomonas aeruginosa [12]; 1 µg/mL (≈ 2.08 µM) with Pseudomonas aeruginosa [13]; 64 µg/mL (≈ 133 µM) against Pseudomonas aeruginosa [14]. In the assay on Pseudomonas aeruginosa [15], this compound yielded an MIC of 32 µg/mL (≈ 66.6 µM). Besides, in the assay on Pseudomonas aeruginosa [10], the Activity is listed as 68.2%.
For `C[C@@H](O)[C@H]1C(=O)N2C(C(=O)O)=C(S[C@@H]3CN[C@H](C(=O)N(C)C)C3)[C@H](C)[C@H]12` [MEROPENEM], the MIC in the assay with Pseudomonas aeruginosa [1] turned out to be 4 µg/mL (≈ 10.4 µM); in the assay on Pseudomonas aeruginosa [2] it was 16 µg/mL (≈ 41.7 µM); in the assay with Pseudomonas aeruginosa [4], 0.5 µg/mL (≈ 1.3 µM); in the assay with Pseudomonas aeruginosa [6] it was 4 µg/mL (≈ 10.4 µM); against Pseudomonas aeruginosa [7], 4 µg/mL (≈ 10.4 µM); against Pseudomonas aeruginosa [8], 16 µg/mL (≈ 41.7 µM). Besides, the MIC in the assay on Pseudomonas aeruginosa [9] amounted to 0.5 µg/mL (≈ 1.3 µM); in the assay with Pseudomonas aeruginosa [11], 16 µg/mL (≈ 41.7 µM); with Pseudomonas aeruginosa [13] it was 0.25 µg/mL (≈ 0.652 µM); against Pseudomonas aeruginosa [14] it was 4 µg/mL (≈ 10.4 µM); in the assay on Pseudomonas aeruginosa [15] it was 32 µg/mL (≈ 83.4 µM). Also, the Activity in the assay with Pseudomonas aeruginosa [10] came out at 52.1%.
On to `NC[C@H]1O[C@H](O[C@H]2[C@H](O)[C@@H](O[C@H]3O[C@H](CO)[C@@H](O)[C@H](N)[C@H]3O)[C@H](N)C[C@@H]2N)[C@H](N)C[C@@H]1O` [TOBRAMYCIN], for which the MIC against Pseudomonas aeruginosa [1] is 8 µg/mL (≈ 17.1 µM); with Pseudomonas aeruginosa [2], 64 µg/mL (≈ 137 µM); in the assay with Pseudomonas aeruginosa [3], 64 µg/mL (≈ 137 µM); with Pseudomonas aeruginosa [5], 32 µg/mL (≈ 68.4 µM); with Pseudomonas aeruginosa [6], 16 µg/mL (≈ 34.2 µM); in the assay with Pseudomonas aeruginosa [7], 16 µg/mL (≈ 34.2 µM). The MIC was 64 µg/mL (≈ 137 µM) in the assay with Pseudomonas aeruginosa [8]; less than 0.12 µg/mL in the assay on Pseudomonas aeruginosa [11]; greater than 64 µg/mL against Pseudomonas aeruginosa [12]; less than 0.12 µg/mL with Pseudomonas aeruginosa [14]; 64 µg/mL (≈ 137 µM) against Pseudomonas aeruginosa [15]. In addition, the Activity in the assay with Pseudomonas aeruginosa [10] is 33.9%.
In the case of `C[C@@H](O)[C@H]1C(=O)N2C(C(=O)O)=C(SCCNC=N)C[C@H]12` [IMIPENEM ANHYDROUS], the MIC with Pseudomonas aeruginosa [1] was 64 µg/mL (≈ 214 µM); against Pseudomonas aeruginosa [2] it was greater than 64 µg/mL; against Pseudomonas aeruginosa [3], greater than 64 µg/mL; against Pseudomonas aeruginosa [4], 1 µg/mL (≈ 3.34 µM); against Pseudomonas aeruginosa [5], greater than 64 µg/mL; in the assay on Pseudomonas aeruginosa [6], greater than 64 µg/mL. Besides, the MIC against Pseudomonas aeruginosa [7] is greater than 64 µg/mL; against Pseudomonas aeruginosa [8] it was greater than 64 µg/mL; against Pseudomonas aeruginosa [9], 1 µg/mL (≈ 3.34 µM); with Pseudomonas aeruginosa [11], 64 µg/mL (≈ 214 µM); against Pseudomonas aeruginosa [12], 16 µg/mL (≈ 53.4 µM); with Pseudomonas aeruginosa [13] it was 1 µg/mL (≈ 3.34 µM). The MIC with Pseudomonas aeruginosa [14] and in the assay on Pseudomonas aeruginosa [15] was greater than 64 µg/mL in each case. Further, the Activity in the assay on Pseudomonas aeruginosa [10] stood at 33.9%.
Consider `O=C(O)c1cn(C2CC2)c2cc(N3CCNCC3)c(F)cc2c1=O` [CIPROFLOXACIN], for which the MIC came out at 4 µg/mL (≈ 12.1 µM) against Pseudomonas aeruginosa [3], 4 µg/mL (≈ 12.1 µM) with Pseudomonas aeruginosa [5], 1 µg/mL (≈ 3.02 µM) against Pseudomonas aeruginosa [12] and 16 µg/mL (≈ 48.3 µM) in the assay with Pseudomonas aeruginosa [15].
